pIC50: −log10 of the molar value. ≈ marks a conversion by molar mass, not a printed value.
How the values were obtained:
Candida albicans = test: Antifungal activity against Candida albicans assessed as reduction in fungal growth incubated for 12 hrs by microdilution method; assay type: functional
U-87 MG = test: Antiproliferative activity against human U87MG cells assessed as reduction in cell viability after 72 hrs by SRB assay; assay type: functional, cell-based, U-87MG ATCC; details: for IC50: u-87mg atcc; for pIC50: Homo sapiens, U-87 MG, 72 h, read-out: IC50
Staphylococcus aureus = test: Antibacterial activity against methicillin resistant Staphylococcus aureus assessed as reduction in bacterial growth incubated for 12 hrs by microdilution method; assay type: functional
U-251 = test: Antiproliferative activity against human U251 cells assessed as reduction in cell viability after 72 hrs by SRB assay; assay type: functional, cell-based; details: for IC50: u-251; for pIC50: Homo sapiens, U-251, 72 h, read-out: IC50
Escherichia coli = test: Antibacterial activity against Escherichia coli assessed as reduction in bacterial growth incubated for 12 hrs by microdilution method; assay type: functional

Q: `C[C@@H]1[C@H](O)[C@@H](C)/C=C/C=C/C=C/C=C/C=C/C=C/C=C/[C@H](O[C@@H]2O[C@H](C)[C@@H](O)[C@H](N)[C@@H]2O)C[C@@H]2O[C@](O)(C[C@@H](O)C[C@@H](O)[C@H](O)CC[C@@H](O)C[C@@H](O)CC(=O)O[C@H]1C)C[C@H](O)[C@H]2C(=O)O` [AMPHOTERICIN B] was tested. Which MIC (Candida albicans) did it give?
A: 0.75 µg/mL (≈ 0.812 µM)

Q: With `C[C@H](CO)[C@@H]1OC(CC2CC(=O)NC(=O)C2)=CC(=O)[C@H]1C` as the molecule, how does the IC50 (U-87 MG) read?
A: Not Active

Q: What about the MIC (Staphylococcus aureus) of the same molecule?
A: 10 µg/mL (≈ 33.9 µM)

Q: And the IC50 (U-251)?
A: Not Active

Q: And the MIC (Candida albicans)?
A: 18 µg/mL (≈ 60.9 µM)

Q: And the MIC (Escherichia coli)?
A: 12 µg/mL (≈ 40.6 µM)

Q: `C[C@](O)(CO)C[C@@]1(C)OC(CC2CC(=O)NC(=O)C2)=CC1=O` was tested. Which IC50 (U-87 MG) did it give?
A: Not Active

Q: And the MIC (Staphylococcus aureus)?
A: 10 µg/mL (≈ 32.1 µM)

Q: What about the IC50 (U-251) of the same molecule?
A: Not Active

Q: And the MIC (Candida albicans)?
A: 18 µg/mL (≈ 57.8 µM)

Q: And the MIC (Escherichia coli)?
A: 12 µg/mL (≈ 38.5 µM)

Q: How did the MIC (Staphylococcus aureus) turn out when `CN[C@H](CC(C)C)C(=O)N[C@H]1C(=O)N[C@@H](CC(N)=O)C(=O)N[C@H]2C(=O)N[C@H]3C(=O)N[C@H](C(=O)N[C@H](C(=O)O)c4cc(O)cc(O)c4-c4cc3ccc4O)[C@H](O)c3ccc(c(Cl)c3)Oc3cc2cc(c3O[C@@H]2O[C@H](CO)[C@@H](O)[C@H](O)[C@H]2O[C@H]2C[C@](C)(N)[C@H](O)[C@H](C)O2)Oc2ccc(cc2Cl)[C@H]1O` [VANCOMYCIN] was run?
A: 0.2 µg/mL (≈ 0.138 µM)

Q: With GENTAMICIN as the molecule, how does the MIC (Escherichia coli) read?
A: 1.25 µg/mL

Q: Which results are given for `C[C@H](CO)C[C@@]1(C)OC(CC2(O)CC(=O)NC(=O)C2)=CC1=O`?
A: IC50 (U-87 MG): Not Active; MIC (Staphylococcus aureus): 9 µg/mL (≈ 28.9 µM); IC50 (U-251): Not Active; MIC (Candida albicans): 20 µg/mL (≈ 64.2 µM); MIC (Escherichia coli): 10 µg/mL (≈ 32.1 µM)

Q: Which IC50 (U-87 MG) does the source give for `C[C@H](CO)C[C@@]1(C)OC(CC2CC(=O)NC(=O)C2)=CC1=O` here?
A: Not Active

Q: And the MIC (Staphylococcus aureus)?
A: 10 µg/mL (≈ 33.9 µM)

Q: And the IC50 (U-251)?
A: Not Active

Q: And the MIC (Candida albicans)?
A: 8 µg/mL (≈ 27.1 µM)

Q: And the MIC (Escherichia coli)?
A: 8 µg/mL (≈ 27.1 µM)

Q: With `CC1=C[C@@](C)(CO)O/C1=C\C(=O)CC1CC(=O)NC(=O)C1` as the molecule, how does the IC50 (U-87 MG) read?
A: Not Active

Q: And the MIC (Staphylococcus aureus)?
A: 10 µg/mL (≈ 34.1 µM)

Q: What about the IC50 (U-251) of the same molecule?
A: Not Active

Q: And the MIC (Candida albicans)?
A: 15 µg/mL (≈ 51.1 µM)

Q: And the MIC (Escherichia coli)?
A: 8 µg/mL (≈ 27.3 µM)

Q: Which results are given for `COc1cccc2c1C(=O)c1c(O)c3c(c(O)c1C2=O)C[C@@](O)(C(=O)CO)C[C@@H]3O[C@H]1C[C@H](N)[C@H](O)[C@H](C)O1` [DOXORUBICIN]?
A: pIC50 (U-87 MG): 5.80; pIC50 (U-251): 5.17

Q: `C[C@@H]1C[C@@H]([C@H](O)CC2CC(=O)NC(=O)C2)C(=O)[C@@H](C)[C@@H]1O` was tested. Which pIC50 (U-87 MG) did it give?
A: 5.42

Q: What about the MIC (Staphylococcus aureus) of the same molecule?
A: 9 µg/mL (≈ 30.3 µM)

Q: And the pIC50 (U-251)?
A: 5.82

Q: What about the MIC (Candida albicans) of the same molecule?
A: 15 µg/mL (≈ 50.4 µM)

Q: What about the MIC (Escherichia coli) of the same molecule?
A: 10 µg/mL (≈ 33.6 µM)

Q: `C[C@H]1C[C@H]([C@H](O)CC2CC(=O)NC(=O)C2)C(=O)[C@@](C)(O)C1` was tested. Which IC50 (U-87 MG) did it give?
A: Not Active

Q: And the MIC (Staphylococcus aureus)?
A: 11 µg/mL (≈ 37 µM)

Q: What about the IC50 (U-251) of the same molecule?
A: Not Active

Q: What about the MIC (Candida albicans) of the same molecule?
A: 12 µg/mL (≈ 40.4 µM)

Q: What about the MIC (Escherichia coli) of the same molecule?
A: 9 µg/mL (≈ 30.3 µM)

Q: `C[C@@H]1C/C(=C/CC2CC(=O)NC(=O)C2)C(=O)[C@@H](C)[C@@H]1O` was tested. Which IC50 (U-87 MG) did it give?
A: Not Active

Q: What about the MIC (Staphylococcus aureus) of the same molecule?
A: 10 µg/mL (≈ 35.8 µM)

Q: And the IC50 (U-251)?
A: Not Active

Q: What about the MIC (Candida albicans) of the same molecule?
A: 18 µg/mL (≈ 64.4 µM)

Q: And the MIC (Escherichia coli)?
A: 10 µg/mL (≈ 35.8 µM)

Q: Which results are given for `C[C@@H]1C[C@](C)(CO)O/C1=C\C(=O)CC1CC(=O)NC(=O)C1`?
A: IC50 (U-87 MG): Not Active; MIC (Staphylococcus aureus): 9 µg/mL (≈ 30.5 µM); IC50 (U-251): Not Active; MIC (Candida albicans): 16 µg/mL (≈ 54.2 µM); MIC (Escherichia coli): 9 µg/mL (≈ 30.5 µM)

Q: How did the pIC50 (U-87 MG) turn out when `C[C@H]1C[C@@](C)(O)C[C@@H]([C@H](O)CC2CC(=O)NC(=O)C2)C1=O` was run?
A: 6.66

Q: And the MIC (Staphylococcus aureus)?
A: 10 µg/mL (≈ 33.6 µM)

Q: What about the pIC50 (U-251) of the same molecule?
A: 7.30

Q: And the MIC (Candida albicans)?
A: 18 µg/mL (≈ 60.5 µM)

Q: What about the MIC (Escherichia coli) of the same molecule?
A: 10 µg/mL (≈ 33.6 µM)

Q: With `C[C@@H]1C[C@@](C)(CO)O/C1=C\C(=O)CC1CC(=O)NC(=O)C1` as the molecule, how does the IC50 (U-87 MG) read?
A: Not Active

Q: And the MIC (Staphylococcus aureus)?
A: 11 µg/mL (≈ 37.2 µM)

Q: What about the IC50 (U-251) of the same molecule?
A: Not Active

Q: And the MIC (Candida albicans)?
A: 20 µg/mL (≈ 67.7 µM)

Q: What about the MIC (Escherichia coli) of the same molecule?
A: 9 µg/mL (≈ 30.5 µM)

Source: ChEMBL document CHEMBL4414606, “Bioactive Streptoglutarimides A-J from the Marine-Derived Streptomyces sp. ZZ741” (J Nat Prod, 2019)
